Several values for one entry are separate records, joined by “and”; a condition that tells them apart may be missing. Identical values can stand only once.
Tests used:
Assay type in all cases: in vivo, mouse
[1] = Plasma exposure after repeated s.c. administration (10 + 2 + 2 + 2 + 2 μmol/kg), LC-MS/MS; conditions: 10µmol/kg repeated
naive mice = assay: Male fertility test; parameters: Male fertility test, individual values (Fig 6E) / male fertility test, BB value (Fig S8C) / male fertility test, AB value (Fig S8C): unit not given here
Description: Mice were 10 weeks old at the beginning of the experiment and acclimatized to the animal facility for two weeks after arrival. Male mice were randomized into two groups (n = 8/group) and weighed and injected s.c. once daily (between 3 pm and 4 pm) for 14 days with sterile PBS or 10 μmol/kg mPD5 (diluted in sterile PBS and pH adjusted to 7.4). After 14 days of dosing, the males were paired with female mice in fresh cages, and the number of pubs counted for 35 days (males were removed from the breeding cages after 14 days). Following the 14 days mating period, males were sacrificed by cervical dislocation caudae epidymidis were removed and weighed. Caudae epidymidis were cut into smaller pieces in 2 mL PBS (37 °C) and incubated (37 °C, 5% CO2) for 15 min. Following incubation, the mix was swirled gently, and 0.5 mL of the liquid was transferred to room tempered PBS to achieve a final volume of 1 mL.
Subsequently, sperm count was determined by transferring 50 µL of the sample to a hemocytometer, and each sample was determined in duplicate by an experimenter blinded to drug treatment. Following criteria were assessed: mobility (forward and circular), local tail mobility and total number. Females were weighed on a regular basis from removal of the males […]
Unless otherwise stated, all data were analysed using GraphPad Prism 9.4.1. and presented as mean +-SEM with the significance level set to p < 0.05. For locomotion and elevated plus maze, Ethovision XT 13 (Noldus) was used to track the distance travelled by each animal. For within group analysis (i.e., von Frey experiments), two-way ANOVA followed by Dunnett’s post hoc test was used. For between group analysis of multiple time points (i.e., locomotion experiments), two-way ANOVA was used without post hoc test due to lack of treatment significance in the ANOVA test. For the limb use experiment, data pre versus post treatment was analysed with a Kruskal Wallis test due to the non-parametric nature of the data. When analysing histograms of three groups or more (i.e., marble burying and elevated plus maze),

[2] = system: mice, CFA model of inflammatory pain; assay: CFA model of inflammatory pain, von Frey, i.t. administration; conditions: CFA day 2, i.t. 20 μM, 7 μL
Method: Unless otherwise specified, wild type C57BL/6NRj mice (male and female, aged eight-weeks at the beginning of experiment) were used (Janvier, France). Animals were allowed at least seven days of habituation to the animal facility before initiation of experiment. Mice were group-housed in a temperature-controlled room, maintained on a 12/12hour light/dark cycle (lights on at 6 A.M) with free access to standard rodent chow (Altromin 1342 (Brogaarden, […]
Drug administration and dosing for animal experiments.
All compounds were diluted in PBS or saline (depending on control) and administered through different routes i.t. (7 μL/mouse)), i.p. (10 μL/g) or s.c. (10 μL/g)) as indicated. Doses of mPD5 were based on previous studies with TPD5 (6) with a subcutaneous dose-range included in the CFA studies further guiding dose selection for SNI, STZ and CIBP studies. Pregabalin dose was chosen based on previous experience from Phenotype Expertise (Marseilles, France). In the CIBP model, a dose of […] morphine was chosen to avoid hyperactivity, though known to provide only partial pain relief in this model. In remaining experiments, 5 mg/kg morphine was chosen, known to provide full pain relief, except for the conditioned place preference experiment, where 10 mg/kg was used instead in accordance with literature. […]

[3] = males s.c. 10 μmol/kg, once daily for 14 days
[4] = s.c. 10 μmol/kg, once daily for 14 days

SMILES: CCCCCCCCCCCCCC(=O)N(CCOCCOCCC(=O)N[C@@H](Cc1c[nH]cn1)C(=O)N[C@@H](Cc1c[nH]c2ccccc12)C(=O)N[C@@H](CC(C)C)C(=O)N[C@@H](CCCCN)C(=O)N[C@H](C(=O)O)C(C)C)CCOCCOCCC(=O)N[C@@H](Cc1c[nH]cn1)C(=O)N[C@@H](Cc1c[nH]c2ccccc12)C(=O)N[C@@H](CC(C)C)C(=O)N[C@@H](CCCCN)C(=O)N[C@H](C(=O)O)C(C)C [mPD5, myristoyl-NPEG4-(HWLKV)2]
- Plasma exposure, Fig 7B, individual mice [1]: 2068 and 1389 and 1614
- male fertility test, AB value (Fig S8C) (naive mice; AB, individual animals): 28 (3×) and 27 and 26 and 28.5 and 29
- male fertility test, BB value (Fig S8C) (naive mice; BB, individual animals): 41.5 and 43 and 45 (2×) and 41 (2×) and 44
- male fertility test, cumulative value by day (Fig S8B) (naive mice; Day 19): 0
- male fertility test, cumulative value by day (Fig S8B) (naive mice; Day 20): 17
- male fertility test, cumulative value by day (Fig S8B) (naive mice; Day 21): 27
- male fertility test, cumulative value by day (Fig S8B) (naive mice; Day 22): 56
- male fertility test, cumulative value by day (Fig S8B) (naive mice; Day 23): 64
- male fertility test, cumulative value by day (Fig S8B) (naive mice; Day 24): 64
- male fertility test, cumulative value by day (Fig S8B) (naive mice; Day 25): 64
- male fertility test, cumulative value by day (Fig S8B) (naive mice; Day 26): 64
- male fertility test, cumulative value by day (Fig S8B) (naive mice; Day 27): 64
- male fertility test, cumulative value by day (Fig S8B) (naive mice; Day 28): 64
- male fertility test, cumulative value by day (Fig S8B) (naive mice; Day29): 64
- male fertility test, cumulative value by day (Fig S8B) (naive mice; Day 30): 64
- male fertility test, cumulative value by day (Fig S8B) (naive mice; Day 31): 64
- male fertility test, cumulative value by day (Fig S8B) (naive mice; Day 32): 64
- male fertility test, cumulative value by day (Fig S8B) (naive mice; Day 33): 64
- male fertility test, cumulative value by day (Fig S8B) (naive mice; Day 34): 64
- male fertility test, cumulative value by day (Fig S8B) (naive mice; Day 35): 64
- body weight drop per pup following birth (naive mice; [3]): the same for both groups
- number of pups per litter vs vehicle (naive mice; [3]): same between groups
- weight gain of females mated with treated male mice (naive mice; [3]): significantly higher
- Male fertility test, individual values (Fig 6E) (naive mice; naive mice): 8 and 9 and 10
- sperm count of the males vs vehicle (naive mice; [4]): same between groups
- sperm count, individual mice (naive mice; [4]): 15062500 and 13125000 and 14250000 and 7750000 and 16000000 and 10750000
- effect on mechanical hypersensitivity (PWT) ([2]; 1 hour and 5 hours after administration): significant relief of mechanical hypersensitivity
- effect on mechanical hypersensitivity (PWT) ([2]; 24 hours after administration): no effect

From PMC11530130, “Peripherally restricted PICK1 inhibitor mPD5 ameliorates pain behaviors in murine inflammatory and neuropathic pain models” (JCI Insight, 2024)
